# Key:
# [1] = tested on: PLC-PRF-5; test: Antiproliferative activity against human PLC/PRF/5 cells after 48 hrs by MTT assay; details: PLC-PRF-5, 48 h
# [2] = target: T1, Aminopeptidase N (Sus scrofa, UniProt P15145); test: Inhibition of porcine kidney CD13 using L-leucine-p-nitroanilide as substrate preincubated for 5 mins followed by substrate addition measured after 30 mins
# T1 sequence (P15145 whole entry): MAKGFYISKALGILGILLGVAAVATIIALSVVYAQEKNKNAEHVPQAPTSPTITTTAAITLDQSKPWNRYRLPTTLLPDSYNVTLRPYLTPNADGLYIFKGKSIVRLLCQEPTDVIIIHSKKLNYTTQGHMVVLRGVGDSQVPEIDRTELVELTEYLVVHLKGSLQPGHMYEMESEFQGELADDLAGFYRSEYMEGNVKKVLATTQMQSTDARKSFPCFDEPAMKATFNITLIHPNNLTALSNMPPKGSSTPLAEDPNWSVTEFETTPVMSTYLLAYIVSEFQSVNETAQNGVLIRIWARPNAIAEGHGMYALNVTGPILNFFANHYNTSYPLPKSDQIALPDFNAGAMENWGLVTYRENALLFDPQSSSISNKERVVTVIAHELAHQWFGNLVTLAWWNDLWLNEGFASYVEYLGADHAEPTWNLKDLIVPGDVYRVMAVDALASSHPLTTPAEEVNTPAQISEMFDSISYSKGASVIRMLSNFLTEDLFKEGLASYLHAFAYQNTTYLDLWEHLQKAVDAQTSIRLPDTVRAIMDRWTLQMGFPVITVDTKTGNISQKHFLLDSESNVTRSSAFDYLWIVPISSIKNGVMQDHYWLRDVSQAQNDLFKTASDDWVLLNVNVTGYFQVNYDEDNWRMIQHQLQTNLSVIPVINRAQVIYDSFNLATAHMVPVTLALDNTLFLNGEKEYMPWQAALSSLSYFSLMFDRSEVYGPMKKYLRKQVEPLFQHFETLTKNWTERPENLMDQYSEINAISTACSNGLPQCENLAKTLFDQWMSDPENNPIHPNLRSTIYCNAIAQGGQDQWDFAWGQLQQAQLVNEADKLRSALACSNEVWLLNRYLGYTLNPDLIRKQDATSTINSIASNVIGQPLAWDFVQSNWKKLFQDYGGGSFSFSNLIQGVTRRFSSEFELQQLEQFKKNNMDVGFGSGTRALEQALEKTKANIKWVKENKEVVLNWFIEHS
# [3] = cells; details: Homo sapiens, ES-2, 48 h
# Description: Antiproliferative activity against human ES2 cells after 48 hrs by MTT assay
# [4] = Drug level in Wistar rat plasma treated with (5-fluoro-2,4-dioxo-3,4-dihydropyrimidin1(2H)-yl)methyl-2-((S)-2-((2S,3R)-3-amino-2-hydroxy-4-phenylbut-anamido)-4-methylpentanamido)acetate hydrochloride assessed as carboxylesterase-mediated compound formation at 80 mg/kg, iv by HPLC-MS/MS analysis; type: ADME, organism-based; details: in vivo
# [5] = Volume of distribution during elimination phase in Wistar rat at 80 mg/kg, iv after 0.05 to 24 hrs by HPLC-MS/MS analysis; type: ADME, organism-based; details: in vivo, read-out: Vz
# [6] = MRT (0 to infinity) in Wistar rat at 80 mg/kg, iv after 0.05 to 24 hrs by HPLC-MS/MS analysis; type: ADME, organism-based; details: Wistar, in vivo
# [7] = Cmax in Wistar rat at 80 mg/kg, iv after 0.05 to 24 hrs by HPLC-MS/MS analysis; type: ADME, organism-based; design: dose 80 mg/kg, route intravenous; details: in vivo
# [8] = Apparent clearance in Wistar rat at 80 mg/kg, iv after 0.05 to 24 hrs by HPLC-MS/MS analysis; type: ADME, organism-based; details: in vivo, read-out: CL(app) (converted)
# [9] = AUC (0 to infinity) in Wistar rat at 80 mg/kg, iv after 0.05 to 24 hrs by HPLC-MS/MS analysis; type: ADME, organism-based; design: dose 80 mg/kg, time infinity, route intravenous; details: in vivo
# [10] = tested on: Rattus norvegicus; test: VRT (0 to infinity) in Wistar rat at 80 mg/kg, iv after 0.05 to 24 hrs by HPLC-MS/MS analysis; type: ADME, organism-based; details: in vivo
# [11] = Terminal Half life in Wistar rat at 80 mg/kg, iv after 0.05 to 24 hrs by HPLC-MS/MS analysis; type: ADME, organism-based; details: Wistar, in vivo, read-out: beta t1/2 (converted)
IC50 [2] [µM],IC50 [3] [µM],Drug metabolism [4],Vd [5] [L/kg],MRT inf [6] [h],Cmax [7] [ng/mL],clearance [8] [mL/min/kg],AUC(0-inf) [9] [ng·h/mL],VRT [10] [hr2],half-life [11] [h],Structure (SMILES),IC50 [1] [µM]
0.69,110,,,,,,,,,CC(C)C[C@H](NC(=O)[C@@H](O)[C@H](N)Cc1ccccc1)C(=O)NCCCC(=O)OCn1cc(F)c(=O)[nH]c1=O,53
0.68,131,,,,,,,,,CC(C)C[C@H](NC(=O)[C@@H](O)[C@H](N)Cc1ccccc1)C(=O)NCCC(=O)OCn1cc(F)c(=O)[nH]c1=O,59
0.6,,Metabolite_Detected,3.93,3.22,8570,36.8,36200,3.797,1.23,CC(C)C[C@H](NC(=O)[C@@H](O)[C@H](N)Cc1ccccc1)C(=O)NCC(=O)O.Cl,
3.18,26.1,,,,,,,,,CC(C)C[C@H](NC(=O)[C@@H](O)[C@H](N)Cc1ccccc1)C(=O)OCn1cc(F)c(=O)[nH]c1=O,18.4

# Source: ChEMBL document CHEMBL4138213, “Synthesis and biological characterization of ubenimex-fluorouracil conjugates for anti-cancer therapy” (Eur J Med Chem, 2018)
